From patent US10350210B2, “EGFR and ALK dual inhibitor” (PRECEDO PHARMACEUTICALS CO., LTD, priority 2015, dated 2019)
Where two headings read alike, the source gives them in different places.

How the values were obtained:
BaF3-NPM-ALK = assay: Cell growth (Cell Titer-Glo viability), BaF3-NPM-ALK; assay type: cell-based; settings: Mus musculus; BaF3-NPM-ALK (stably expressing ALK kinase), 72 hrs
Excerpt: (§1) By testing the effect of the novel kinase inhibitors on the proliferation of cancer cells, the selectivity of the compounds of the present disclosure in inhibiting the proliferation of cancer cells was further assessed. In this example, human non-small cell lung cancer cell NCI-H1975 (expressing EGFR L858R/T790M double mutant gene), human skin squamous carcinoma cell A431 (expressing wild-type EGFR gene), non-small cell lung cancer NCI-H3255 (expressing EGFR L858R mutant gene), non-small cell lung cancer cell NCI-H3122 (expressing ALK gene), human non-small cell lung cancer cell A549 (expressing wild-type EGFR gene), human non-small cell lung cancer cell NCI-H2122 (expressing wild-type EGFR gene), human non-small cell lung cancer cell NCI-H460 (expressing wild-type EGFR gene), human non-small cell lung cancer cell PC-9 (expressing EGFR delE746_A750 mutant gene), Chinese hamster ovary cell CHO (Cricetulus griseus, hamster, Chinese, ovary), Chinese hamster lung cell CHL, human non-small cell lung cancer cell HCC827 (expressing mutant EGFR del19 gene), human lung adenocarcinoma cell HCC4006 (expressing mutant EGFR del19 gene), human non-small cell lung cancer cell NCI-H2228 (expressing wild-type ALK gene), and mouse primary B cell BaF3 were used, and the above cells were all purchased from ATCC (US). In addition, mouse BaF3-TEL-ALK (stably expressing ALK kinase), mouse BaF3-ALK-F1174L (stably expressing mutant ALK F1174L kinase), mouse BaF3-NPM-ALK (stably expressing ALK kinase), mouse BaF3-TEL-EGFR (stably expressing EGFR kinase), mouse BaF3-TEL-EGFR-T790M (stably expressing EGFR T790M mutant kinase), mouse BaF3-FL-EGFR-Del19 (stably expressing EGFR delE746_A750 mutant kinase), mouse BaF3-TEL-EGFR-L858R (stably expressing EGFR L858R mutant kinase), mouse BaF3-FL-EGFR-T790M-L858R (stably expressing EGFR T790M/L858R mutant kinase), mouse BaF3-TEL-INSR (stably expressing INSR protein), mouse BaF3-TEL-IGF1R (stably expressing IGF1R Protein), mouse BaF3-EML4-ALK (stably expressing EML4-ALK Protein), mouse BaF3-TEL-JAK3 (stably expressing JAK3 kinase protein), mouse BaF3-TEL-CSF1R (stably expressing CSF1R protein), and mouse BaF3-TEL-ALK-F1196M (stably expressing ALK F1196M mutant kinase) were also used in this example. The above cell lines were all established by our laboratory via the following process: kinase proteins or protein domain sequences of human ALK, ALK F1174L, EGFR, EGFR T790M, EGFR delE746_A750, EGFR L858, EGFR T790M/L858R, INSR, IGF1R, EML4-ALK, JAK3, CSF1R, ALK F1196M were amplified respectively by PCR, and were respectively inserted into MSCV-Puro vector (Clontech) with N-terminal TEL fragments and/or NPM fragments and/or TPR fragments; the resultants were stably transfected into mouse BaF3 cells by the means of retrovirus, and the IL-3 growth factors were removed, and eventually the ALK, ALK F1174L, EGFR, EGFR T790M, EGFR delE746_A750, EGFR L858, EGFR T790M/L858R, INSR, IGF1R, EML4-ALK, JAK3, CSF1R, ALK F1196M-transferred protein dependent cell lines were obtained.
(§2) The number of viable cells was determined quantitatively by a microplate reader using Cell Titer-Glo® (Promega, US) chemiluminescence cell viability assay kit.

BaF3-TEL-ALK = assay: Cell growth (Cell Titer-Glo viability), BaF3-TEL-ALK; assay type: cell-based; settings: Mus musculus; BaF3-TEL-ALK (stably expressing ALK kinase), 72 hrs
Excerpt: as §1, §2

A549 = assay: Growth of cancer cells (Cell Titer-Glo viability), A549; assay type: cell-based; settings: Homo sapiens; A549 (wild-type EGFR), 72 hrs
Excerpt: as §1, §2

NCI-H1975 = assay: Growth of cancer cells (Cell Titer-Glo viability), NCI-H1975; assay type: cell-based; settings: Homo sapiens; NCI-H1975 (EGFR L858R/T790M double mutant), 72 hrs
Excerpt: as §1, §2

HCC827 = assay: Growth of cancer cells (Cell Titer-Glo viability), HCC827; assay type: cell-based; settings: Homo sapiens; HCC827 (mutant EGFR del19), 72 hrs
Excerpt: as §1, §2

PC-9 = assay: Growth of cancer cells (Cell Titer-Glo viability), PC-9; assay type: cell-based; settings: Homo sapiens; PC-9 (EGFR delE746_A750 mutant), 72 hrs
Excerpt: as §1, §2

NCI-H2228 = assay: Growth of cancer cells (Cell Titer-Glo viability), NCI-H2228; assay type: cell-based; settings: Homo sapiens; NCI-H2228 (wild-type ALK), 72 hrs
Excerpt: as §1, §2

BaF3 = assay: Cell growth (Cell Titer-Glo viability), BaF3; assay type: cell-based; settings: BaF3 mouse primary B cell, 72 hrs
Excerpt: as §1, §2

A431 = assay: Growth of cancer cells (Cell Titer-Glo viability), A431; assay type: cell-based; settings: Homo sapiens
Excerpt: as §1, §2

NCI-H3122 = assay: Growth of cancer cells (Cell Titer-Glo viability), NCI-H3122; assay type: cell-based; settings: Homo sapiens
Excerpt: as §1, §2

CHL = assay: Cell growth (Cell Titer-Glo viability), CHL; assay type: cell-based, Chinese hamster; settings: Cricetulus griseus
Excerpt: as §1, §2

CHO = assay: Cell growth (Cell Titer-Glo viability), CHO; assay type: cell-based, Chinese hamster; settings: Cricetulus griseus
Excerpt: as §1, §2

NCI-H2122 = assay: Growth of cancer cells (Cell Titer-Glo viability), NCI-H2122; assay type: cell-based; settings: Homo sapiens; NCI-H2122 (wild-type EGFR), 72 hrs
Excerpt: as §1, §2

BaF3-TEL-EGFR-T790M = assay: Cell growth (Cell Titer-Glo viability), BaF3-TEL-EGFR-T790M; assay type: cell-based; settings: Mus musculus; BaF3-TEL-EGFR-T790M (EGFR T790M mutant kinase), 72 hrs
Excerpt: as §1, §2

BaF3-ALK-F1174L = assay: Cell growth (Cell Titer-Glo viability), BaF3-ALK-F1174L; assay type: cell-based; settings: Mus musculus; BaF3-ALK-F1174L (mutant ALK F1174L kinase), 72 hrs
Excerpt: as §1, §2

BaF3-FL-EGFR-Del19 = assay: Cell growth (Cell Titer-Glo viability), BaF3-FL-EGFR-Del19; assay type: cell-based; settings: Mus musculus; BaF3-FL-EGFR-Del19 (EGFR delE746_A750 mutant kinase), 72 hrs
Excerpt: as §1, §2

[1] = A-431, A431 (wild-type EGFR), 72 hrs, read-out: GI50
[2] = NCI-H3122 (expressing ALK gene), 72 hrs, read-out: GI50
[3] = CHL Chinese hamster lung cell, 72 hrs, read-out: GI50
[4] = CHO Chinese hamster ovary cell, 72 hrs, read-out: GI50

Row | Structure (SMILES) | GI50 (BaF3-NPM-ALK) [nM] | GI50 (BaF3-TEL-ALK) [nM] | GI50 (A549) [nM] | GI50 (NCI-H1975) [nM] | GI50 (HCC827) [nM] | GI50 (PC-9) [nM] | GI50 (NCI-H2228) [nM] | GI50 (BaF3) [nM] | GI50 (A431; [1]) [nM] | GI50 (NCI-H3122; [2]) [nM] | GI50 (A431; A-431, 72 h) [nM] | GI50 (NCI-H3122; NCI-H3122, 72 h) [nM] | GI50 (NCI-H2122) [nM] | GI50 (BaF3-TEL-EGFR-T790M) [nM] | GI50 (BaF3-ALK-F1174L) [nM] | GI50 (BaF3-FL-EGFR-Del19) [nM] | GI50 (CHL; [3]) [nM] | GI50 (CHO; [4]) [nM] | GI50 (CHL; CHL, 72 h) [nM] | GI50 (CHO; CHO, 72 h) [nM]
1 | C=CC(=O)Nc1cc(Nc2ncc(Cl)c(Nc3ccccc3S(=O)(=O)C(C)C)n2)c(OC)cc1N1CCN(CCOC)CC1 [Compound 13, N-(5-(5-chloro-4-(2-(isopropylsulfonyl)phenylamino)pyrimidin-2-ylamino)-4-methoxy-2-(4-(2-methoxyethyl)piperazin-1-yl)phenyl)acrylamide] | < 0.3 | > 10000 | 630 | 41 | 15 | 12 | 5.9 | 1400 | 470 | < 0.3 |  |  |  |  |  |  | 3700 | 470 |  | 
2 | C=CC(=O)Nc1cc(Nc2ncc(Cl)c(Nc3ccccc3S(=O)(=O)C(C)C)n2)c(OC)cc1N1CCN[C@@H](C)C1 [Compound 29, (S)—N-(5-(5-chloro-4-(2-(isopropylsulfonyl)phenylamino)pyrimidin-2-ylamino)-4-methoxy-2-(3-methylpiperazin-1-yl)phenyl)acrylamide] | 3 |  | 690 | 120 | 59 | 62 | 73 |  | 100 |  |  |  | 680 |  | 950 |  | 3700 | 1500 |  | 
3 | C=CC(=O)Nc1cc(Nc2ncc(Cl)c(Nc3ccccc3S(=O)(=O)C(C)C)n2)c(OC)cc1N1CCN(CC2CC2)CC1 [Compound 14, N-(5-(5-chloro-4-(2-(isopropylsulfonyl)phenylamino)pyrimidin-2-ylamino)-2-(4-(cyclopropylmethyl)piperazin-1-yl)-4-methoxyphenyl)acrylamide] | < 0.3 |  | 130 | 100 | 32 |  | 28 |  | 350 | < 0.3 |  |  | 4300 |  |  |  | 2000 | 300 |  | 
4 | C=CC(=O)Nc1cc(Nc2ncc(Cl)c(Nc3cccc(C(F)(F)F)c3)n2)c(OC)cc1N1CCN(C)CC1 [Compound 18, N-(5-(5-chloro-4-(3-(trifluoromethyl)phenylamino)pyrimidin-2-ylamino)-4-methoxy-2-(4-methylpiperazin-1-yl)phenyl)acrylamide] |  | 180 | > 10000 | 260 | 46 | 160 | 170 | 4300 | 4600 | 770 |  |  | 3400 | 80 | 1700 | < 0.3 | 4200 | 5400 |  | 
5 | C=CC(=O)Nc1cc(Nc2ncc(Cl)c(Nc3ccccc3S(=O)(=O)C(C)C)n2)c(OC)cc1N1CCN[C@H](C)C1 [Compound 28, (R)—N-(5-(5-chloro-4-(2-(isopropylsulfonyl)phenylamino)pyrimidin-2-ylamino)-4-methoxy-2-(3-methylpiperazin-1-yl)phenyl)acrylamide] | 1 |  | 480 | 140 | 64 | 71 | 31 |  | 71 |  |  |  | 621 |  | 1000 |  | 3300 | 1700 |  | 

Further lines, with some results ahead:

Row | GI50 (BaF3-NPM-ALK) [nM] | GI50 (BaF3-TEL-ALK) [nM] | GI50 (A549) [nM] | GI50 (NCI-H1975) [nM] | GI50 (HCC827) [nM] | GI50 (PC-9) [nM] | GI50 (NCI-H2228) [nM] | GI50 (BaF3) [nM] | GI50 (A431; [1]) [nM] | GI50 (NCI-H3122; [2]) [nM] | GI50 (A431; A-431, 72 h) [nM] | GI50 (NCI-H3122; NCI-H3122, 72 h) [nM] | GI50 (NCI-H2122) [nM] | GI50 (BaF3-TEL-EGFR-T790M) [nM] | GI50 (BaF3-ALK-F1174L) [nM] | GI50 (BaF3-FL-EGFR-Del19) [nM] | Structure (SMILES) | GI50 (CHL; [3]) [nM] | GI50 (CHO; [4]) [nM] | GI50 (CHL; CHL, 72 h) [nM] | GI50 (CHO; CHO, 72 h) [nM]
6 |  |  |  |  |  |  |  |  |  |  | 1000 | 73 |  |  |  |  | C[C@@H](Oc1cc(-c2cnn(C3CCNCC3)c2)cnc1N)c1c(Cl)ccc(F)c1Cl [Crizotinib, reference compound] |  |  | 1900 | 6400
7 |  | 43 | > 10000 | 100 | 28 | 31 | 78 | 6800 | 1100 | 300 |  |  | 1400 | 35 | 740 | < 0.3 | C=CC(=O)Nc1cc(Nc2ncc(Cl)c(Nc3ccc(F)c(Cl)c3)n2)c(OC)cc1N1CCN(C)CC1 [Compound 21, N-(5-(5-chloro-4-(3-chloro-4-fluorophenylamino)pyrimidin-2-ylamino)-4-methoxy-2-(4-methylpiperazin-1-yl)phenyl)acrylamide] | > 10000 | 6200 |  | 
8 | 1 |  | 360 | 1200 | 110 | 90 | 31 |  | 840 |  |  |  | 1030 |  | 630 |  | C=CC(=O)Nc1cc(Nc2ncc(Cl)c(Nc3ccccc3S(=O)(=O)C(C)C)n2)c(OC)cc1N1CCOCC1 [Compound 7, N-(5-(5-chloro-4-(2-(isopropylsulfonyl)phenylamino)pyrimidin-2-ylamino)-4-methoxy-2-morpholinylphenyl) acrylamide] | 9100 | 2900 |  | 
9 | < 0.3 | 7.5 | 390 | 77 | 38 | 36 | 70 | 300 | 370 | < 0.3 |  |  |  |  |  |  | C=CC(=O)Nc1cc(Nc2ncc(Cl)c(Nc3ccccc3S(=O)(=O)C(C)C)n2)c(OC)cc1N1CCN(C2CCCCC2)CC1 [Compound 15, N-(5-(5-chloro-4-(2-(isopropylsulfonyl)phenylamino)pyrimidin-2-ylamino)-2-(4-cyclohexylpiperazin-1-yl)-4-methoxyphenyl)acrylamide] | 1400 | 170 |  | 
10 | 16 | 16 | 4500 | 310 |  | 230 | 66 | 4100 | 4200 | 20 |  |  | 1100 |  |  |  | C=CC(=O)Nc1cc(Nc2ncc(Cl)c(Nc3ccccc3S(=O)(=O)C(C)C)n2)c(OC)cc1N1CCN(Cc2ccccc2)CC1 [Compound 16, N-(2-(4-benzylpiperazin-1-yl)-5-(5-chloro-4-(2-(isopropylsulfonyl)phenylamino)pyrimidin-2-ylamino)-4-methoxyphenyl)acrylamide] | > 10000 | 1300 |  | 
